Experimental data reported in US8329717B2, “Pyrimidine derivatives and their use for controlling undesired plant growth” (Bayer Cropscience AG, priority 2008, dated 2012).

Tests used:
[1] = test system: PHBPU; assay: Post-emergence herbicidal effect; type: in vivo; conditions: Dosage 320 g/ha, one-leaf stage, visual scoring after ca. 3 weeks vs untreated controls, 100% = plants have died
Procedure: 2. Post-Emergence Herbicidal Effect and Crop Plant Compatibility Seeds of monocotyledonous or dicotyledonous weed plants or crop plants are planted in wood-fiber pots in sandy loam, covered with earth and grown in a greenhouse under good growth conditions. 2 to 3 weeks after sowing, the test plants are treated in the one-leaf stage. The compounds according to the invention, formulated in the form of wettable powders (WP) or as emulsion concentrates (EC), are then sprayed onto the green plant parts as aqueous suspension or emulsion at a water application rate of 600 to 800 l/ha (converted) with the addition of 0.2% of wetting agent. The dosage of the compounds according to the invention is given in grams per hectare. After ca. 3 weeks' standing time of the test plants in the greenhouse under optimum growth conditions, the effect of the preparations is scored visually in comparison with untreated controls (herbicidal effect in percent (%): 100% effect=plants have died, 0% effect=as control plants).

[2] = test system: Stellaria media; assay: Pre-emergence herbicidal effect; type: in vivo; conditions: Dosage 320 g/ha, visual scoring after 3 weeks vs untreated controls, 100% = plants have died
Procedure, shortened: (§1)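 Damage rated visually after 3 weeks in greenhouse relative to untreated plants, 100% meaning plants died and 0% unaffected. Compounds, dosed in grams per hectare as WP or EC in 600 to 800 l/ha water plus 0.2% wetting agent, were applied pre-emergence to soil over seeds sown in sandy loam.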

[3] = test system: Veronica persica; assay: Pre-emergence herbicidal effect; type: in vivo; conditions: Dosage 320 g/ha, visual scoring after 3 weeks vs untreated controls, 100% = plants have died
Procedure, shortened: as §1

[4] = test system: Avena fatua; assay: Pre-emergence herbicidal effect; type: in vivo; conditions: Dosage 320 g/ha, visual scoring after 3 weeks vs untreated controls, 100% = plants have died
Procedure, shortened: as §1

[5] = test system: Echinochloa crus-galli; assay: Pre-emergence herbicidal effect; type: in vivo; conditions: Dosage 320 g/ha, visual scoring after 3 weeks vs untreated controls, 100% = plants have died
Procedure, shortened: as §1

[6] = test system: Abutilon theophrasti; assay: Pre-emergence herbicidal effect; type: in vivo; conditions: Dosage 320 g/ha, visual scoring after 3 weeks vs untreated controls, 100% = plants have died
Procedure, shortened: as §1

[7] = test system: Setaria viridis; assay: Pre-emergence herbicidal effect; type: in vivo; conditions: Dosage 320 g/ha, visual scoring after 3 weeks vs untreated controls, 100% = plants have died
Procedure, shortened: as §1

[8] = test system: Cyperus esculentus; assay: Pre-emergence herbicidal effect; type: in vivo; conditions: Dosage 320 g/ha, visual scoring after 3 weeks vs untreated controls, 100% = plants have died
Procedure, shortened: as §1

[9] = test system: Amaranthus retroflexus; assay: Pre-emergence herbicidal effect; type: in vivo; conditions: Dosage 320 g/ha, visual scoring after 3 weeks vs untreated controls, 100% = plants have died
Procedure, shortened: as §1

[10] = test system: Alopecurus myosuroides; assay: Pre-emergence herbicidal effect; type: in vivo; conditions: Dosage 320 g/ha, visual scoring after 3 weeks vs untreated controls, 100% = plants have died
Procedure, shortened: as §1

[11] = test system: Lolium multiflorum; assay: Pre-emergence herbicidal effect; type: in vivo; conditions: Dosage 320 g/ha, visual scoring after 3 weeks vs untreated controls, 100% = plants have died
Procedure, shortened: as §1

[12] = test system: Matricaria inodora; assay: Pre-emergence herbicidal effect; type: in vivo; conditions: Dosage 320 g/ha, visual scoring after 3 weeks vs untreated controls, 100% = plants have died
Procedure, shortened: as §1

[13] = test system: Stellaria media; assay: Post-emergence herbicidal effect; type: in vivo; conditions: Dosage 320 g/ha, one-leaf stage, visual scoring after ca. 3 weeks vs untreated controls, 100% = plants have died
Procedure, shortened: (§2)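 Greenhouse-grown plants in sandy loam were sprayed at the one-leaf stage, 2 to 3 weeks after sowing, with compounds formulated as WP or EC in water (600 to 800 l/ha, 0.2% wetting agent); dose in g/ha. Visual scoring about 3 weeks later versus untreated controls, 0% = as control, 100% = dead.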

[14] = test system: Veronica persica; assay: Post-emergence herbicidal effect; type: in vivo; conditions: Dosage 320 g/ha, one-leaf stage, visual scoring after ca. 3 weeks vs untreated controls, 100% = plants have died
Procedure, shortened: as §2

[15] = test system: Avena fatua; assay: Post-emergence herbicidal effect; type: in vivo; conditions: Dosage 320 g/ha, one-leaf stage, visual scoring after ca. 3 weeks vs untreated controls, 100% = plants have died
Procedure, shortened: as §2

[16] = test system: Echinochloa crus-galli; assay: Post-emergence herbicidal effect; type: in vivo; conditions: Dosage 320 g/ha, one-leaf stage, visual scoring after ca. 3 weeks vs untreated controls, 100% = plants have died
Procedure, shortened: as §2

[17] = test system: Viola tricolor; assay: Post-emergence herbicidal effect; type: in vivo; conditions: Dosage 320 g/ha, one-leaf stage, visual scoring after ca. 3 weeks vs untreated controls, 100% = plants have died
Procedure, shortened: as §2

[18] = test system: Abutilon theophrasti; assay: Post-emergence herbicidal effect; type: in vivo; conditions: Dosage 320 g/ha, one-leaf stage, visual scoring after ca. 3 weeks vs untreated controls, 100% = plants have died
Procedure, shortened: as §2

[19] = test system: Setaria viridis; assay: Post-emergence herbicidal effect; type: in vivo; conditions: Dosage 320 g/ha, one-leaf stage, visual scoring after ca. 3 weeks vs untreated controls, 100% = plants have died
Procedure, shortened: as §2

[20] = test system: Polygonum convolvulus; assay: Post-emergence herbicidal effect; type: in vivo; conditions: Dosage 320 g/ha, one-leaf stage, visual scoring after ca. 3 weeks vs untreated controls, 100% = plants have died
Procedure, shortened: as §2

[21] = test system: Amaranthus retroflexus; assay: Post-emergence herbicidal effect; type: in vivo; conditions: Dosage 320 g/ha, one-leaf stage, visual scoring after ca. 3 weeks vs untreated controls, 100% = plants have died
Procedure, shortened: as §2

[22] = test system: Alopecurus myosuroides; assay: Post-emergence herbicidal effect; type: in vivo; conditions: Dosage 320 g/ha, one-leaf stage, visual scoring after ca. 3 weeks vs untreated controls, 100% = plants have died
Procedure, shortened: as §2

[23] = test system: Lolium multiflorum; assay: Post-emergence herbicidal effect; type: in vivo; conditions: Dosage 320 g/ha, one-leaf stage, visual scoring after ca. 3 weeks vs untreated controls, 100% = plants have died
Procedure, shortened: as §2

[24] = test system: Matricaria inodora; assay: Post-emergence herbicidal effect; type: in vivo; conditions: Dosage 320 g/ha, one-leaf stage, visual scoring after ca. 3 weeks vs untreated controls, 100% = plants have died
Procedure, shortened: as §2

[25] = logp (HCOOH), chemicophysical data; conditions: for chromatographic logP: HCOOH (formic acid)
[26] = test system: Viola tricolor; assay: Pre-emergence herbicidal effect; type: in vivo; conditions: Dosage 320 g/ha, visual scoring after 3 weeks vs untreated controls, 100% = plants have died
Procedure, shortened: as §1

[27] = test system: Polygonum convolvulus; assay: Pre-emergence herbicidal effect; type: in vivo; conditions: Dosage 320 g/ha, visual scoring after 3 weeks vs untreated controls, 100% = plants have died
Procedure, shortened: as §1

SMILES | Post-emergence herbicidal effect PHBPU [1] [%] | Pre-emergence herbicidal effect STEME [2] [%] | Pre-emergence herbicidal effect VERPE [3] [%] | Pre-emergence herbicidal effect AVEFA [4] [%] | Pre-emergence herbicidal effect ECHCG [5] [%] | Pre-emergence herbicidal effect ABUTH [6] [%] | Pre-emergence herbicidal effect SETVI [7] [%] | Pre-emergence herbicidal effect CYPES [8] [%] | Pre-emergence herbicidal effect AMARE [9] [%] | Pre-emergence herbicidal effect ALOMY [10] [%] | Pre-emergence herbicidal effect LOLMU [11] [%] | Pre-emergence herbicidal effect MATIN [12] [%] | Post-emergence herbicidal effect STEME [13] [%] | Post-emergence herbicidal effect VERPE [14] [%] | Post-emergence herbicidal effect AVEFA [15] [%] | Post-emergence herbicidal effect ECHCG [16] [%] | Post-emergence herbicidal effect SETVI [19] [%] | Post-emergence herbicidal effect AMARE [21] [%] | Post-emergence herbicidal effect ALOMY [22] [%] | Post-emergence herbicidal effect LOLMU [23] [%] | further results
Cc1ccc2c(c1)[C@H](Nc1nc(C)c(C#N)c(N)n1)[C@@H](C)C2 [Example 1.17] | 90 | 100 | 100 | 90 | 100 | 100 | 100 | 90 | 100 | 100 | 100 | 100 | 97 | 87 | 80 | 93 | 90 | 97 | 90 | 93 | Post-emergence herbicidal effect VIOTR [17]: 90%; Post-emergence herbicidal effect ABUTH [18]: 87%; Post-emergence herbicidal effect POLCO [20]: 80%; Post-emergence herbicidal effect MATIN [24]: 85%; logp (HCOOH) [25]: solid, m.p.: 166.4° C.; logp (HCOOH): 2.40; 1H-NMR (CDCl3, 400 MHZ, δ in ppm): 1.25
Cc1ccc2c(c1)[C@H](Nc1ncc(C#N)c(N)n1)[C@@H](C)C2 [Example 1.35] | 90 | 100 | 100 | 100 | 100 | 100 | 100 | 100 | 100 | 100 | 100 | 100 | 95 | 95 | 95 | 100 | 95 | 93 | 100 | 90 | Pre-emergence herbicidal effect VIOTR [26]: 100%; Pre-emergence herbicidal effect POLCO [27]: 100%; Post-emergence herbicidal effect VIOTR [17]: 90%; Post-emergence herbicidal effect ABUTH [18]: 95%; Post-emergence herbicidal effect POLCO [20]: 90%; Post-emergence herbicidal effect MATIN [24]: 85%; logp (HCOOH) [25]: wax-like; logp (HCOOH): 2.35; 1H-NMR (CDCl3, 400 MHZ, δ in ppm): 1.25 (d, 3H, CH3);
Cc1ccc2c(c1)[C@H](Nc1ncc(F)c(N)n1)[C@@H](C)C2 [Example 1.56] | 90 | 100 | 100 | 100 | 100 | – | 100 | 80 | 100 | 100 | 100 | 100 | 80 | 90 | 80 | 90 | 80 | 80 | 85 | 93 | Pre-emergence herbicidal effect VIOTR [26]: 100%; Pre-emergence herbicidal effect POLCO [27]: 95%; logp (HCOOH) [25]: wax-like; logp (HCOOH): 1.20; 1H-NMR (CDCl3, 400 MHZ, δ in ppm): 1.25 (d, 3H, CH3);
Cc1ccc2c(c1)[C@H](Nc1nc(N)c(C#N)c(-c3ccccc3F)n1)[C@@H](C)C2 [Example 1.104, 4-Amino-2-{[(1R,2S)-2,6-dimethyl-2,3-dihydro-1H-inden-1-yl]amino}-6-(2-fluorophenyl)pyrimidine-5-carbonitrile] | – | – | – | – | – | – | – | – | – | – | – | – | – | – | – | – | – | – | – | – | melting point: 67 to 68 °C; chromatographic logP [25]: 3.65
Cc1ccc2c(c1)[C@H](Nc1ncc(Cl)c(N)n1)[C@@H](C)C2 [Example 1.105] | 90 | 100 | 100 | 80 | 100 | 100 | 100 | 100 | 100 | 100 | 100 | 100 | 90 | – | 90 | 100 | 90 | 90 | 80 | 90 | Pre-emergence herbicidal effect VIOTR [26]: 100%; Pre-emergence herbicidal effect POLCO [27]: 100%; Post-emergence herbicidal effect VIOTR [17]: 80%; Post-emergence herbicidal effect ABUTH [18]: 90%; Post-emergence herbicidal effect POLCO [20]: 80%; Post-emergence herbicidal effect MATIN [24]: 90%; logp (HCOOH) [25]: wax-like; logp (HCOOH): 1.27; 1H-NMR (CDCl3, 400 MHZ, δ in ppm): 1.30 (d, 3H, CH3);
Nc1nc(N[C@@H]2CCCc3ccccc32)ncc1C(F)(F)F [Example 1.108, N2-[(1R)-1,2,3,4-Tetrahydronaphthalen-1-yl]-5-(trifluoromethyl)pyrimidine-2,4-diamine] | – | – | – | – | – | – | – | – | – | – | – | – | – | – | – | – | – | – | – | – | melting point: 130.8 °C; chromatographic logP [25]: 1.64
C#Cc1cnc(N[C@H]2c3cc(C)ccc3C[C@@H]2C)nc1N [Example 1.119, N2-[(1R,2S)-2,6-Dimethyl-2,3-dihydro-1H-inden-1-yl]-5-ethynylpyrimidine-2,4-diamine] | – | – | – | – | – | – | – | – | – | – | – | – | – | – | – | – | – | – | – | – | melting point: 99 °C; chromatographic logP [25]: 1.43
CC[C@H]1Cc2ccccc2[C@@H]1Nc1ncc(C#N)c(N)n1 [Example 1.129] | – | 100 | 100 | 90 | 100 | 80 | 100 | 80 | 100 | 100 | 100 | 100 | 90 | 90 | 80 | 100 | 90 | 90 | 90 | 90 | Pre-emergence herbicidal effect VIOTR [26]: 100%; Pre-emergence herbicidal effect POLCO [27]: 100%; Post-emergence herbicidal effect VIOTR [17]: 80%; Post-emergence herbicidal effect ABUTH [18]: 90%; Post-emergence herbicidal effect POLCO [20]: 90%
